Values belong to the compound of their own block, whether it stands above or below them. Square brackets hold non-standard residues; d marks the D form. Peptide text beside a SMILES is read from it.
Experiments:
[1] = molecular target: T1, chymotrypsin (Bos taurus, UniProt P00766); assay: in vitro; conditions: cattle (bovine), pH 8
Method: (§1) Proteolytic stability of the linear and stapled Noxa peptides against trypsin (Type IX-S, 13,000-20,000 unit/mg, Sigma) and chymotrypsin (Type II, 40 unit/mg, Sigma). To a solution of 400 μL of 0.25 mM peptide in NH4HCO3 buffer, pH 8.0, was added 80 μL trypsin (5 μg/mL) or chymotrypsin (25 μg/mL), and the resulting solution was incubated at 37° C. At the indicated times, 40 μL of the solution was transferred to 40 μL trifluoroacetic acid to quench the reaction. The samples were analyzed by reverse-phase HPLC using benzophenone as an injection control.

[2] = molecular target: T2, trypsin (Sus scrofa, UniProt P00761); assay: in vitro; conditions: pig (porcine), pH 8
Method: as §1

[3] = molecular target: T3, full-length human MDM2 (GST-MDM2) (Homo sapiens, UniProt Q00987); assay: ELISA, inhibition of p53-MDM2 interaction; format: binding; conditions: relative to comparator linear peptide
T3 construct: GST-MDM2 and GST-MDMX containing full-length human MDM2 and MDMX; made in house; host or cells: Escherichia coli
Text: FIG. 10. ELISA data of the cross-linked PDI analogs. The experiments were repeated three times and the resulting data were plotted with GraphPad Prism 5.0 to derive the average IC50 values along with standard deviations.
ELISA Assay. GST-MDM2 and GST-MDMX containing full-length human MDM2 and MDMX and His6-tagged human p53 were expressed in Escherichia coli and purified by glutathione agarose and Ni^2+-nitrilotriacetic acid beads, respectively, under non-denaturing conditions. Microtiter plates were coated with 2.5 μg/ml His6-p53 in PBS buffer for 16 hours. After washing with PBS containing 0.1% Tween-20 (PBST), the plates were blocked with PBST containing 5% nonfat dry milk (PBSTM) for 30 minutes. Peptides were dissolved in DMSO. GST-MDM2 and MDMX (5 μg/ml) were mixed with peptides in PBSMT containing 10% glycerol and 10 mM dithiolthreitol prior to their additions to the wells at the specified concentrations. The incubation was allowed to proceed for 1 hour at room temperature before the plates were washed with PBST. […] The plates were developed by incubation with TMB peroxidase substrate (KPL, Gaithersburg, Md.) and measured by absorbance at 450 nm. The data was analyzed with the Origin 6.0 software. […]

[4] = Circular dichroism, percent helicity; format: physicochemical; conditions: compared to the linear NoxaBH3 peptide, 50 μM in 20% ACN/H2O
Method: FIG. 12. […] The peptides were dissolved in 20% ACN/H2O for a final concentration of 50 μM.
Circular Dichroism Study. […] The spectra were recorded in the wavelength range of 190-250 nm and averaged over 3 scans with a resolution of 0.5 nm, a bandwidth of 1.0 nm and a response time of 4 s. The sensitivity and the speed of the spectrometer were set to 100 mdeg and 50 nm/min, respectively. All peptides were dissolved in 20% acetonitrile/H2O to reach final concentration of 50 μM.

[5] = molecular target: T1, chymotrypsin; assay: Chymotrypsin proteolytic stability assay
Method: as §1

[6] = molecular target: T2, trypsin; assay: Trypsin-mediated proteolytic stability assay
Method: as §1

[7] = molecular target: Mcl-1 (Homo sapiens, UniProt Q07820); assay: ELISA of cross-linked Noxa peptides; format: binding
[8] = Water solubility; format: physicochemical
[9] = molecular target: GST-Mcl-1 (Homo sapiens, UniProt Q07820); assay: Competitive fluorescence polarization assay; format: binding; conditions: Noxa peptides, three repeats ± SD; read-out: FP, IC50
Method: Competitive Florescence Polarization Assay. The binding affinity of the Noxa peptides toward GST-Mcl-1 was determined in a competitive fluorescence polarization assay with the fluorescein-labeled Bak or Bim. Briefly, fluorescein-labeled Bak was incubated with GST-Mcl-1 in a binding buffer (PBS, 0.005% Tween-20, pH7.4) at room temperature in a 96-well microtiter plate. […] The reading was repeated at various time points to ensure that the competition has reached equilibrium.

[10] = tested on: Bfl-1/A1; conditions: background literature; read-out: IC50 against Bfl-1/A1; cited from earlier work
[11] = molecular target: Mcl-1 (Mus musculus, UniProt P97287); conditions: background literature; read-out: IC50 against Mcl-1; cited from earlier work
[12] = molecular target: Bcl-2 (Homo sapiens, UniProt P10415); conditions: background literature; read-out: IC50 against Bcl-2; cited from earlier work
[13] = molecular target: Bcl-xL (Homo sapiens, UniProt Q07817); conditions: background literature; read-out: IC50 against Bcl-xL; cited from earlier work
[14] = molecular target: T4, Bcl-w (Homo sapiens, UniProt Q92843); conditions: background literature; read-out: IC50 against Bcl-w; cited from earlier work
T4 sequence (Q92843 1-193): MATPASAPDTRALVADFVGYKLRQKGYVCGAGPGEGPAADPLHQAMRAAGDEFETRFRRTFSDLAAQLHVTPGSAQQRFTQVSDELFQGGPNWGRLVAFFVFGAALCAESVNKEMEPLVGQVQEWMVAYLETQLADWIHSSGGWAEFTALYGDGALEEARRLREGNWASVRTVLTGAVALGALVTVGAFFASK

T2 sequence (P00761 9-231): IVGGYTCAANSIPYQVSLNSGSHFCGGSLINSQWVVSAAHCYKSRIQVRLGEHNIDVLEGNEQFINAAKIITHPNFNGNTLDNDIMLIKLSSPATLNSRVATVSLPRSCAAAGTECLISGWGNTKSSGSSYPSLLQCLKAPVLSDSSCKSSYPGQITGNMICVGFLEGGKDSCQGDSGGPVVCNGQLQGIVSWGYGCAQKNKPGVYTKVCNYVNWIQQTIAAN
Bcl-xL, sequence (Q07817 whole entry, species assumed): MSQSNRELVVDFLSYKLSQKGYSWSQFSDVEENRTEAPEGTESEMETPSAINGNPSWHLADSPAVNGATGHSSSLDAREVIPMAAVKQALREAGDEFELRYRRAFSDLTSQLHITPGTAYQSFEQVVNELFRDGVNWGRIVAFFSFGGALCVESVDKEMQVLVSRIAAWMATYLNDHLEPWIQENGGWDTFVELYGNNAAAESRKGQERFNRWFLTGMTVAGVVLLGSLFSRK
GST-Mcl-1, sequence (Q07820 whole entry): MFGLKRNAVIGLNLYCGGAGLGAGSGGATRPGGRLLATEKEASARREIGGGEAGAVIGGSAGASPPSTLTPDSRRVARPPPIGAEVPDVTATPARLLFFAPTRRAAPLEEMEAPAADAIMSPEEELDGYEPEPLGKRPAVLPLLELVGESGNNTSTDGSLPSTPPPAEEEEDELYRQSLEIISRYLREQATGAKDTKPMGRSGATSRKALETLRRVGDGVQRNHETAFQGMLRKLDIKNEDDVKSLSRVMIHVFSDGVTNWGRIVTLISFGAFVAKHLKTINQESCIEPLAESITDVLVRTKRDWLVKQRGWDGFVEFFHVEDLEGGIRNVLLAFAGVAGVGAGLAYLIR
Mcl-1 (Homo sapiens, UniProt Q07820), sequence (Q07820 whole entry, species assumed): as the sequence (Q07820 whole entry) above
T3 sequence (Q00987 whole entry): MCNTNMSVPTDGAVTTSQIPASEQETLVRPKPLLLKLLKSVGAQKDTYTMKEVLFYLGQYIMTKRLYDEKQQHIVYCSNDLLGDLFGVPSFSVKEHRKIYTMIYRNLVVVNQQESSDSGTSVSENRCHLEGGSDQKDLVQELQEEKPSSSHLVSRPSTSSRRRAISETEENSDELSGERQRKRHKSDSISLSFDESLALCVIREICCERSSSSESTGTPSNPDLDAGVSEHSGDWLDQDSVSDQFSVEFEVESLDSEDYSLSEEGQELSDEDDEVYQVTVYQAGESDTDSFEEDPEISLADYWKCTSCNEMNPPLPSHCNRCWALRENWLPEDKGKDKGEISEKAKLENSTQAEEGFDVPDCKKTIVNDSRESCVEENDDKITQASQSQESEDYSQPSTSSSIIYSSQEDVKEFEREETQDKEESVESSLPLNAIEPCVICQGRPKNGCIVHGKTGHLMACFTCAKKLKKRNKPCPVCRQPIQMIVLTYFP
Mcl-1 (Mus musculus, UniProt P97287), sequence (P97287 152-308 limits assumed): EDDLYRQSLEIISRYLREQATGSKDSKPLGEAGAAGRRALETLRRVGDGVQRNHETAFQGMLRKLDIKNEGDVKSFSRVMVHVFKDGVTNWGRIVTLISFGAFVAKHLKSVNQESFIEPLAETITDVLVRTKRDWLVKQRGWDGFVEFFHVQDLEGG
Bcl-2, sequence (P10415 whole entry, species assumed): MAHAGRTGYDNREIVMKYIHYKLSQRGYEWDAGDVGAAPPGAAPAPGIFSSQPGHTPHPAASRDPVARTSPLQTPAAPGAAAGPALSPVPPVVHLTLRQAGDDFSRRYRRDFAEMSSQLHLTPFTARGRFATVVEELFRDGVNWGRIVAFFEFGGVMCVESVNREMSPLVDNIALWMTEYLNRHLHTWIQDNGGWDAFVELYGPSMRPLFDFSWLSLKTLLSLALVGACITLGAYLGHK

- half-life at 0.208 mM [1]: 3.3 min
- half-life at 0.208 mM [2]: 1.8 min
Compound: CC[C@H](C)[C@H](NC(=O)[C@H](CCCNC(=N)N)NC(=O)[C@H](CCCNC(=N)N)NC(=O)[C@H](CC(C)C)NC(=O)[C@H](CCC(N)=O)NC(=O)[C@H](C)NC(=O)[C@H](C)NC(C)=O)C(=O)NCC(=O)N[C@@H](CC(=O)O)C(=O)N[C@@H](CCCCN)C(=O)N[C@H](C(=O)N[C@@H](CC(N)=O)C(=O)N[C@@H](CC(C)C)C(=O)N[C@@H](CCCNC(=N)N)C(=O)N[C@@H](CCC(N)=O)C(=O)N[C@@H](CCCCN)C(=O)N[C@@H](CC(C)C)C(=O)N[C@@H](CC(C)C)C(=O)N[C@@H](CC(N)=O)C(N)=O)C(C)C [NoxaB^75-93-C75A]

- increase in MDM2 activity [3]: more than 3 fold
Compound: CC(=O)N[C@@H](CC(C)C)C(=O)N[C@H](C(=O)N[C@@H](Cc1ccccc1)C(=O)N[C@H](CS)C(=O)N[C@@H](Cc1c[nH]cn1)C(=O)N[C@@H](Cc1ccc(O)cc1)C(=O)N[C@@H](Cc1c[nH]c2ccccc12)C(=O)N[C@@H](C)C(=O)N[C@@H](CCC(N)=O)C(=O)N[C@@H](CC(C)C)C(=O)N[C@@H](CS)C(=O)N[C@@H](CO)C(N)=O)[C@@H](C)O [Peptide 3] (Ac-LTF[dC]HYWAQLCS-NH2; C-terminus assumed)

- enhancement in percent helicity [4]: roughly 2 fold
- times more stable against chymotrypsin than parent linear peptide [5]: > 16 times
- half-life at 0.208 mM ([5]; cattle (bovine), chymotrypsin (Type II, Sigma) in NH4HCO3 buffer, pH 8): 54 min
- times more stable against trypsin than parent linear peptide [6]: > 6 times
- half-life at 0.208 mM ([6]; pig (porcine), trypsin (Type IX-S, Sigma) in NH4HCO3 buffer, pH 8): 11.5 min
- IC50 [7]: 140 nM
- water solubility [8]: better water solubility
- IC50 [9]: 140 ± 43 nM
Compound: CC[C@H](C)[C@@H]1NC(=O)[C@H](CCCNC(=N)N)NC(=O)[C@H](CCCNC(=N)N)NC(=O)[C@H](CC(C)C)NC(=O)[C@H](NC(=O)[C@H](C)NC(=O)[C@H](C)NC(C)=O)CSCc2ccc(cn2)-c2ccc(nc2)CSC[C@@H](C(=O)N[C@H](C(=O)N[C@@H](CC(N)=O)C(=O)N[C@@H](CC(C)C)C(=O)N[C@@H](CCCNC(=N)N)C(=O)N[C@@H](CCC(N)=O)C(=O)N[C@@H](CCCCN)C(=O)N[C@@H](CC(C)C)C(=O)N[C@@H](CC(C)C)C(=O)N[C@@H](CC(N)=O)C(N)=O)C(C)C)NC(=O)[C@H](CC(=O)O)NC(=O)CNC1=O [Peptide 6b]

Compound: NoxaBH3-(18-43): human Noxa BH3 peptide, residues 18-43 (PAELEVECATQLRRFGDKLNFRQKLL; UniProt Q13794 18-43, looked up, fragment)
- IC50 [10]: 180 nM
- IC50 [11]: 24 nM
- IC50 [12]: > 100000 nM
- IC50 [13]: > 100000 nM
- IC50 [14]: > 100000 nM
